Experimental data from the NIST ThermoML archive (doi:10.1021/je100972k).
Values joined by “and” are separate entries in the source; they are usually repeats but may differ in a detail not shown here. Identical values can stand only once.

Conditions: Crystal

[F-].[F-].[F-].[F-].[Zr+4] [zirconium(IV) fluoride]
Conditions | vapor or sublimation pressure
685 K | 8.13e-06 kPa
689 K | 8.13e-06 kPa
690 K | 1.05e-05 kPa
693 K | 1.05e-05 kPa and 1.62e-05 kPa
698.5 K | 1.62e-05 kPa
699 K | 1.55e-05 kPa and 2.4e-05 kPa
704 K | 1.2e-05 kPa
705 K | 3.24e-05 kPa
706.5 K | 2.4e-05 kPa
707 K | 3.09e-05 kPa
709 K | 3.09e-05 kPa
709.5 K | 2.82e-05 kPa
711 K | 4.9e-05 kPa
711.5 K | 1.62e-05 kPa
712.5 K | 2.4e-05 kPa
713 K | 4.17e-05 kPa
713.5 K | 3.24e-05 kPa
715 K | 2.04e-05 kPa
717 K | 6.46e-05 kPa and 2.4e-05 kPa
719 K | 3.63e-05 kPa
720 K | 4.9e-05 kPa and 3.47e-05 kPa and 2.82e-05 kPa
720.5 K | 5.25e-05 kPa
721 K | 3.24e-05 kPa
723.5 K | 4.9e-05 kPa
724 K | 6.46e-05 kPa and 4.68e-05 kPa
724.5 K | 4.68e-05 kPa
725.5 K | 4.07e-05 kPa and 3.63e-05 kPa
726.5 K | 4.07e-05 kPa
728.5 K | 9.33e-05 kPa and 0.000112 kPa
729 K | 6.46e-05 kPa
729.5 K | 8.91e-05 kPa
730 K | 8.32e-05 kPa and 6.92e-05 kPa
731.5 K | 5.62e-05 kPa and 4.9e-05 kPa
732 K | 6.92e-05 kPa and 5.62e-05 kPa
734.5 K | 0.000112 kPa
735 K | 8.91e-05 kPa
735.5 K | 0.000162 kPa
736 K | 0.00012 kPa and 9.33e-05 kPa
737 K | 0.000117 kPa and 8.13e-05 kPa and 6.46e-05 kPa
737.5 K | 0.000145 kPa and 7.24e-05 kPa
739.5 K | 0.000135 kPa
740.5 K | 0.000155 kPa and 9.33e-05 kPa
741 K | 0.000112 kPa
742 K | 0.000219 kPa
743 K | 0.000141 kPa and 0.000105 kPa and 8.91e-05 kPa
743.5 K | 0.000162 kPa and 9.77e-05 kPa
746.5 K | 0.000224 kPa and 0.000209 kPa and 0.000204 kPa
748 K | 0.000162 kPa
748.5 K | 0.000282 kPa and 0.00012 kPa
749 K | 0.000151 kPa and 0.000129 kPa
750 K | 0.000145 kPa
750.5 K | 0.000209 kPa
751 K | 0.00024 kPa
751.5 K | 0.000251 kPa
753 K | 0.000209 kPa and 0.000158 kPa
754 K | 0.000324 kPa and 0.000209 kPa
754.5 K | 0.000372 kPa and 0.00017 kPa
755 K | 0.000178 kPa
756 K | 0.000288 kPa and 0.000417 kPa and 0.000302 kPa
756.5 K | 0.000302 kPa
757 K | 0.000302 kPa
757.5 K | 0.000251 kPa
758 K | 0.000195 kPa
759 K | 0.000257 kPa
760 K | 0.000234 kPa and 0.000219 kPa
760.5 K | 0.000363 kPa
763 K | 0.000513 kPa [middle of 4 runs]
764 K | 0.000234 kPa
765 K | 0.000347 kPa
765.5 K | 0.000302 kPa
766 K | 0.000468 kPa [middle of 5 runs]
766.5 K | 0.000457 kPa
769 K | 0.000741 kPa and 0.000437 kPa
770.5 K | 0.000447 kPa
771.5 K | 0.000363 kPa
772 K | 0.000537 kPa and 0.000407 kPa
773 K | 0.000417 kPa
774 K | 0.000891 kPa and 0.000427 kPa
775 K | 0.000646 kPa
777.5 K | 0.000603 kPa
778 K | 0.000525 kPa and 0.000501 kPa
779 K | 0.000724 kPa
781 K | 0.00055 kPa
783 K | 0.000646 kPa
783.5 K | 0.000933 kPa
784 K | 0.000813 kPa
785 K | 0.000646 kPa
786 K | 0.001 kPa
788 K | 0.00145 kPa
789 K | 0.000813 kPa
789.5 K | 0.00102 kPa
791 K | 0.000977 kPa
792 K | 0.00129 kPa
793 K | 0.00129 kPa
794 K | 0.00105 kPa
798 K | 0.00148 kPa and 0.00123 kPa and 0.00126 kPa
799 K | 0.00234 kPa
801 K | 0.00186 kPa and 0.0017 kPa
802 K | 0.00155 kPa
803 K | 0.00166 kPa
803.5 K | 0.00186 kPa
807 K | 0.00209 kPa
808 K | 0.00295 kPa
810.5 K | 0.0024 kPa
811 K | 0.00275 kPa and 0.00209 kPa
815 K | 0.00295 kPa
818 K | 0.00389 kPa
821 K | 0.0038 kPa
823 K | 0.00617 kPa
828 K | 0.00562 kPa
